Test results: publication PMC6493972, “Synthesis and Biological Evaluation of (E)-4-Hydroxy-3-methylbut-2-enyl Phosphate (HMBP) Aryloxy Triester Phosphoramidate Prodrugs as Activators of Vγ9/Vδ2 T-Cell Immune Responses” (Journal of Medicinal Chemistry, 2018)

Experiments:
Vγ9/Vδ2 T-cells = assay: Activation of Vγ9/Vδ2 T-cells in PBMC (upregulation of CD69 and CD25); format: cell-based; details: human PBMC from healthy donors, 18 h, n = 4-5 donors, Figure 2d and text
PBMC = assay: Specific cell death in PBMC cultures (ED50, viability dye); format: cell-based, human; details: supplementary CSV
Protocol: Figure 2 Activation of human Vγ9/Vδ2^+ T cells by HMBP ProPAgens. (a) Human peripheral blood mononuclear cells (PBMC) were incubated with media or indicated concentrations of HMB-PP or zoledronate for 18 h. TCR Vγ9/Vδ2^+ T cells were then assessed for the upregulation of cell surface markers, CD69 and CD25. Data representative of n = 5. (b) As in (a), with PBMC incubated with indicated concentrations of HMBP ProPAgens. Data representative of n = 4. (c) As in (a) and (b), with data showing titrations of each of HMB-PP, zoledronate, and HMBP ProPAgens, alongside a medium control (M). Data from n = 4–5 donors. (d) EC50, ED50, and selectivity index (SI) values for each HMBP ProPAgens. Specific cell death, for ED50 values, was calculated after adjusting for nonspecific cell death in medium controls. (e) CD69 and CD25 activation in CD3^+ CD8^+ αβ T-cells for each compound.
I. T-cell isolation, culture and activation
PBMCs were isolated from heparinised venous blood from consented healthy donors (approved by the NRES Committee West Midlands ethical board; REC reference 14/WM/1254). Blood was layered over lymphoprep© (Stem Cell Technologies) and PBMC isolated according to manufacturers instructions. The cell culture medium used throughout was RPMI-1640 media supplemented with 2 mM L-glutamine, 25 mM HEPES, 1% sodium pyruvate, 50 μg/ml penicillin/streptomycin (Invitrogen) and 10% fetal calf serum (Sigma). For activation assays, 5 x 10^5 PBMC were cultured for 20 h in the presence of medium alone or the indicated concentrations of HMB-PP (Sigma), Zoledronate (Sigma), 5a, 5b, 5c and 5d (as described above). Cultured PBMC were labelled with Zombie© aqua viability dye (Biolegend) and cells were stained for surface antigens by antibodies directed against CD3 (UCHT1; […]
(§1) (IMMU360; 1:400); Beckman Coulter, and TCR Vδ2 (123R3; 1:200); Miltenyi. […] All cells were then labelled with Zombie© aqua viability dye and CFSE+ Zombie© aqua+ cells measured. All data were acquired on an LSR II (Beckton Dickinson) and data analysed with FlowJo V10.1 (TreeStar). Tabulated data were analysed in Graphpad PRISM 7

[1] = system: T24 urinary bladder carcinoma cell line; assay: Specific lysis of pulsed T24 bladder carcinoma cells by expanded Vγ9/Vδ2 T cells; format: cell-based, human; details: T24 pulsed 4 h with 10 nM ProPAgens or 10 μM zoledronate, cocultured 18 h with expanded Vγ9/Vδ2 T cells
Protocol: Next, we tested the potential for ProPAgens to sensitize the urinary bladder carcinoma cell line T24 for targeted killing by in vitro expanded Vγ9/Vδ2 T cells. Without sensitization, medium pulsed T24 cells were poorly targeted by increasing ratios of Vγ9/Vδ2 T cells, but upon pulsing for 4 h with zoledronate or ProPAgens 5a–d, T24 cells were specifically lysed (Figure 3a). […] In contrast, a 1000-fold lower concentration of each ProPAgen mediated a 2- to 4-fold increase in specific lysis of T24 over the same period (Figure 3b).
Figure 3 HMBP ProPAgens mediate the specific lysis of bladder cancer cells by Vγ9/Vδ2 T-cells. […] Specific killing of target cells was measured by amine-reactive dead cell marker staining. […] (b) As in (a) showing the mean ± SD specific killing of T24 cells at 1:10 target/effector ratio for each indicated treatment, n = 2: (∗) P < 0.05; (∗∗) P < 0.01; determined by one-way ANOVA. […]
as §1

[2] = target: T1, carboxypeptidase cathepsin A (Homo sapiens, UniProt P10619); assay: In vitro cathepsin A mediated degradation monitored by 31P NMR and mass spectroscopy; format: in vitro ADME; details: after 72 h
T1 sequence (P10619 29-480): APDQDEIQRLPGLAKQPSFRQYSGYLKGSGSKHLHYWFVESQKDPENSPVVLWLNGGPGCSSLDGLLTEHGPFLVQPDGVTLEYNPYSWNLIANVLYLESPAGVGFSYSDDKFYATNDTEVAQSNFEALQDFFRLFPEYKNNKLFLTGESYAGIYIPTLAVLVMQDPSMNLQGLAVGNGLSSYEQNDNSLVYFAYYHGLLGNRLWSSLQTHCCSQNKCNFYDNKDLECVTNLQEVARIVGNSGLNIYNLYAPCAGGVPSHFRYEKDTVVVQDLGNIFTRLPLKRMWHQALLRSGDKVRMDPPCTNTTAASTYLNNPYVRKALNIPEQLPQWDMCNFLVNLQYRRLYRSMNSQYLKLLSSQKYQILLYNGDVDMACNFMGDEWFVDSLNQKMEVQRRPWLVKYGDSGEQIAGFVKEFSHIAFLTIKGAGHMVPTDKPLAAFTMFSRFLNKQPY
Protocol: In order to get an insight into the metabolism of ProPAgens 6a–d, compound 6d was incubated with the carboxypeptidase cathepsin A in vitro and the reaction was monitored with ^31P NMR. […] This may explain literature reports pursuing the phosphonates of HMBP where the −O-P- bond was replaced by a −CH2-P- one and lack of reports on the native HMBP phosphate prodrugs.[19]

| SMILES | EC50, activation of Vγ9/Vδ2 T-cells (Vγ9/Vδ2 T-cells) | ED50 (PBMC) [µM] | other results |
| --- | --- | --- | --- |
| C/C(=C\COP(=O)(N[C@@H](C)C(=O)OC(C)(C)C)Oc1ccccc1)CO[Si](C)(C)C(C)(C)C (stereo partly drawn) [5d, tert-Butyl ((((E)-4-((tert-Butyldimethylsilyl)oxy)-3-methylbut-2-en-1-yl)oxy)(phenoxy)phosphoryl)-L-alaninate] | low nanomolar activation | >100 | – |
| C/C(=C\COP(=O)(N[C@@H](C)C(=O)OC(C)C)Oc1ccccc1)CO[Si](C)(C)C(C)(C)C (stereo partly drawn) [5c, Isopropyl ((((E)-4-((tert-Butyldimethylsilyl)oxy)-3-methylbut-2-en-1-yl)oxy)(phenoxy)phosphoryl)-L-alaninate] | low nanomolar activation | – | – |
| C/C(=C\COP(=O)(O)OP(=O)(O)O)CO [HMBPP, (E)-4-hydroxy-3-methyl-but-2-enyl pyrophosphate] | – | >100 | – |
| O.O=P(O)(O)C(O)(Cn1ccnc1)P(=O)(O)O [Zoledronate] | – | >100 | specific lysis/killing of T24 cells by Vγ9/Vδ2 T cells (in words) [1]: only a marginal increase |
| COC(=O)[C@H](C)NP(=O)(OC/C=C(\C)CO[Si](C)(C)C(C)(C)C)Oc1ccccc1 (stereo partly drawn) [5a, Methyl ((((E)-4-((tert-Butyldimethylsilyl)oxy)-3-methylbut-2-en-1-yl)oxy)(phenoxy)phosphoryl)-L-alaninate] | low nanomolar activation | – | – |
| C/C(=C\COP(=O)(N[C@@H](C)C(=O)OC(C)(C)C)Oc1ccccc1)CO (stereo partly drawn) [6d, tert-Butyl ((((E)-4-Hydroxy-3-methylbut-2-en-1-yl)oxy)(phenoxy)phosphoryl)-L-alaninate] | – | – | degradation product (major metabolite) after incubation with cathepsin A [2]: phosphate group masked with the aryl motif and the amino acid ester moiety |
